Reference: paper PMC8780741, “Integration of In Silico, In Vitro and In Situ Tools for the Preformulation and Characterization of a Novel Cardio-Neuroprotective Compound during the Early Stages of Drug Development” (Pharmaceutics, 2022)
Where two headings read alike, the source gives them in different places.

Columns and labels:
[1] = Apparent permeability across Caco-2 monolayers; type: in vitro ADME; settings: human
Method: (§1) MDCK (Madin–Darby Canine Kidney) cells, their transfected clone MDCK-MDR1, and Caco-2 cells were grown in the modified Dulbecco Eagle medium added with L-glutamine, fetal bovine serum and penicillin−streptomycin. The number of cells seeded in transwells with a surface area of 4.2 cm^2 depended on the cell line: 250,000 cells/cm^2 for MDCK and Caco-2 and 150,000 cells/cm^2 for MDCK-MDR1. Experiments were performed between 7 and 9 days for MDCK and MDCK-MDR1 and between 19 and 21 for Caco-2 cells after seeding. Prior to drug placement, cell monolayer integrity was assessed by measuring transepithelial electrical resistance (TEER). Transport studies were performed on an orbital shaker at 37 °C and 50 rpm. Four samples of 200 μL were taken from the receptor side at 0, 15, 30, 60 and 90 min, and two samples from the donor compartment at the beginning and end of the experiment. A standard experiment was performed with the same buffer for the apical and basolateral compartments in the apical to basolateral (A-B) and basolateral to apical (B-A) directions. The drug concentration was 100 μM in all experiments and samples were analyzed immediately by HPLC. The retention time was 2.3 min at maximum wavelengths (λmax = 260 nm). The conditions used for HPLC analyses were: mobile phase composed of a mixture of 50% H2O (95% H2O + 0.5% trifluoroacetic) and another 50% HPLC-grade methanol. The stationary phase composed of a Phenomenex® KJ0-4282 column, with two 2 μm filters filled with C-18 microparticles of 40 μm size and a Nova Pak C-18 stainless-steel column of 150 mm length. […] The lower limit of quantitation of JM-20 was adequate to interpolate the values obtained in the samples.
The apparent permeability coefficient was calculated according to the following Equation (2):(2) Creceiver,t=Qtotal/Vreceiver+Vdonor+Creceiver,t−1·f−Qtotal/Vreceiver+Vdonor·e^−Peff0,1·S·1/Vreceiver+1/Vdonor·Δt where Creceiver,t is the concentration of the drug in the receiver compartment at the time t, Qtotal is the total amount of drug in receiver and donor chambers, Vreceiver and Vdonor are the volumes of receiver and donor chamber, respectively, Creceiver,t−1 is the concentration of the drug in receiver compartment at the previous time, f is the replacement dilution factor of the sample, S is the surface area of the monolayer, Δt is the time interval and Peff is the coefficient of permeability, as was described by Mangas-Sanjuan et al. All calculations were developed in Microsoft® Excel (2018).

[2] = biological target: T1, P-glycoprotein transporter (MDR1) (Homo sapiens, UniProt P08183); assay: P-glycoprotein substrate assessment (B-A permeability MDCK-MDR1 vs MDCK); type: in vitro ADME; settings: B-A permeability higher in MDCK-MDR1 than in MDCK (p < 0.05)
T1 construct: expressed in transfected cells; host or cells: MDCK-MDR1 (transfected clone of Madin-Darby Canine Kidney cells)
Method: as §1, with “nm).” for “nm). The conditions used for HPLC analyses were: mobile phase composed of a mixture of 50% H2O (95% H2O + 0.5% trifluoroacetic) and another 50% HPLC-grade methanol. The stationary phase composed of a Phenomenex® KJ0-4282 column, with two 2 μm filters filled with C-18 microparticles of 40 μm size and a Nova Pak C-18 stainless-steel column of 150 mm length.”, “samples. […]” for “samples.”

[3] = Apparent permeability across MDCK monolayers; type: in vitro ADME, Canine; settings: dog, 37 °C, stirring at 50 rpm
Method: as §1, with “nm).” for “nm). The conditions used for HPLC analyses were: mobile phase composed of a mixture of 50% H2O (95% H2O + 0.5% trifluoroacetic) and another 50% HPLC-grade methanol. The stationary phase composed of a Phenomenex® KJ0-4282 column, with two 2 μm filters filled with C-18 microparticles of 40 μm size and a Nova Pak C-18 stainless-steel column of 150 mm length.”, “samples. […]” for “samples.”

[4] = Dissociation constant (pKa) by UV-spectrophotometric method; type: physicochemical; settings: aqueous buffer solutions
Method: The pH measurements were performed using a sensiON™ (PH31) pH meter. Standard solutions of JM-20 ([…] were prepared adding 0.2 mL of the stock solution in 9.8 mL of each buffer. UV-VIS spectra were recorded on a UV-Vis Spectrophotometer (Thermo Fisher GENESYS™ 10S, Shanghai, China) between 200 and 400 nm (2 nm of resolution). All spectrophotometric data were processed in Microsoft Excel (2018).
The experimental pKa was determined using the spectrophotometric method proposed by Salgado et al.. The absorbance spectra of the JM-20 were acquired at different pH levels. The wavelengths of maximum absorbance were determined at each pH. Using a plot of observed absorbance versus pH at these analytical wavelengths (262, 316 and 355 nm), the pKa values were calculated. To determine these points, the linear equations of the two points closest to the crossing at each curve were solved. The whole procedure was carried out in triplicate and at room temperature (23 ± 2 °C).

[5] = set-up: method as in product owner (technical report); settings: ref product owner (technical report); cited from earlier work
[6] = Refinement of intrinsic and salt solubility with pDISOL-X
From the text: To develop a solution speciation model, the experimental data of log S—pH were used as input into the computer program pDISOL-X [30]. The computational algorithm considers the contributions of all species present in solution, including all buffer components. The program derives its own implicit solubility equations internally, given any practical number of equilibria and estimated constants. The equilibrium constants are subsequently refined by weighted nonlinear least-squares regression. The method can test for the presence of specific buffer drug species. The program assumes an initial condition of a suspension of the solid drug in a solution, ideally with the suspension saturated over a wide range of pH. The software calculates the species distribution as a consequence of a sequence of additions of standardized strong-acid titrant HCl to simulate the suspension pH-speciation down to pH ~ 0, the staging point for the subsequent operation. […] The ionic strength is rigorously calculated at each step, and pKa values (as well as the solubility products and the aggregation and complexation constants) are adjusted accordingly. At the end of the pH-speciation simulation, the calculated log S vs. pH curve is compared to log S vs. pH measured. A log S-weighted nonlinear least squares refinement begins to refine the proposed equilibrium model, using analytical expressions for the differential equations. The process is repeated until the differences between calculated and measured log S values reach a minimum.

T1 sequence (P08183 whole entry): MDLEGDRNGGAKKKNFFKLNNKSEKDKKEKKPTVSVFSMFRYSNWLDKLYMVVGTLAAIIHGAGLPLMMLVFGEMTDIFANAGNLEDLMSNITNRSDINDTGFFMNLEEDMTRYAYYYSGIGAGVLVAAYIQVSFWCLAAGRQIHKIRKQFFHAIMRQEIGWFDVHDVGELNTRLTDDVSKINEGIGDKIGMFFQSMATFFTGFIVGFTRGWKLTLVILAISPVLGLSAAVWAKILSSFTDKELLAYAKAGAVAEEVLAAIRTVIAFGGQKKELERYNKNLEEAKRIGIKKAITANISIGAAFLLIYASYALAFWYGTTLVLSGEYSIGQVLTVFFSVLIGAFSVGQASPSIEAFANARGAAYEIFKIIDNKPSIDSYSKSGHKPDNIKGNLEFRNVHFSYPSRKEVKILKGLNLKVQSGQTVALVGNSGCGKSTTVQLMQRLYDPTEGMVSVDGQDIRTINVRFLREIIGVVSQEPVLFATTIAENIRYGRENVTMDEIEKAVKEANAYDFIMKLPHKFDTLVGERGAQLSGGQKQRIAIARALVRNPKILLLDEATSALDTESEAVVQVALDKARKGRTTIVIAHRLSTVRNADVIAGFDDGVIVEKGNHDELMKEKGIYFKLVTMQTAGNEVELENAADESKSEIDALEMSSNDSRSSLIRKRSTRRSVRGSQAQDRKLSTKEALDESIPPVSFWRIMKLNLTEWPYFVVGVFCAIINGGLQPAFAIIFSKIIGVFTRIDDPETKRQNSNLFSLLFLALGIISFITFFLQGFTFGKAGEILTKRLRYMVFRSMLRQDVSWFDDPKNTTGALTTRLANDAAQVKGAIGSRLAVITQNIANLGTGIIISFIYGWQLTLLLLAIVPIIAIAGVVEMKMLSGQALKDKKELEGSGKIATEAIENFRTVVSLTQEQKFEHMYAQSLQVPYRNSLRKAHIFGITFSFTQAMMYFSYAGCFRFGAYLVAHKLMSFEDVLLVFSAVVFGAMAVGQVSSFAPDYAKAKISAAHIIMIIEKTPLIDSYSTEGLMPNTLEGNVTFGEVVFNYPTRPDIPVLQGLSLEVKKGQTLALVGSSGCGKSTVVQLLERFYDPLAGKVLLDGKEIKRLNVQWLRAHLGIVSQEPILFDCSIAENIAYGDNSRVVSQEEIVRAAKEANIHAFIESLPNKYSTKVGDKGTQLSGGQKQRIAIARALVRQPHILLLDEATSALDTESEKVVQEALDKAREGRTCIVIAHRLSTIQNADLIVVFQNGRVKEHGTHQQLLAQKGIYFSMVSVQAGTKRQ

Papp A→B at 90 min, 100 µM ([1]; Caco-2, Caco-2, 100 μM, 37 °C, stirring at 50 rpm): 38.3 ± 1.8 ×10⁻⁶ cm/s | Papp at 90 min, 100 µM ([1]; Caco-2, read-out: Permeability, Caco-2 value (abstract)): 38 ×10⁻⁶ cm/s | Papp B→A at 90 min, 100 µM ([1]; Caco-2, 100 μM, 37 °C, stirring at 50 rpm): 8.5 ± 2.4 ×10⁻⁶ cm/s | efflux ratio at 90 min, 100 µM ([1]; Caco-2 bidirectional transport): 0.13 | Papp A→B at 90 min, 100 µM [3]: 24.6 ± 1.1 ×10⁻⁶ cm/s | Papp B→A at 90 min, 100 µM [3]: 2.8 ± 7.1 ×10⁻⁶ cm/s | pKa ([4]; pH 2 to 12, UV-spectrophotometric, 23 °C, ionic strength approximately 0.1 M, read-out: pKa1 (base)): 5.48 ± 0.19 | pKa ([4]; pH 2 to 12, UV-spectrophotometric, 23 °C, ionic strength approximately 0.1 M, read-out: pKa2 (acid)): 10.5 ± 0.17 | pKa ([4]; pH 2 to 12, measured pKa transformed to 37 °C (estimated), read-out: pKa1 at 37 °C): 5.54 | pKa ([4]; pH 2 to 12, measured pKa transformed to 37 °C (estimated), read-out: pKa2 at 37 °C): 10.3 | solubility ([6]; 37 °C, read-out: So, intrinsic solubility calculated by pDISOL-X): 12 µg/mL | solubility ([6]; aqueous buffer, pH 3.5, 37 °C, read-out: Solubility calculated by pDISOL-X): 14.3 µg/mL | solubility ([6]; aqueous buffer, pH 4.0, 37 °C, read-out: Solubility calculated by pDISOL-X): 18.9 µg/mL | solubility ([6]; aqueous buffer, pH 4.5, 37 °C, read-out: Solubility calculated by pDISOL-X): 74.9 µg/mL | solubility ([6]; aqueous buffer, pH 6.8, 37 °C, read-out: Solubility calculated by pDISOL-X): 12.5 µg/mL | solubility ([6]; aqueous buffer, pH 7.4, 37 °C, read-out: Solubility calculated by pDISOL-X): 11.9 µg/mL | solubility ([6]; pH 1.2, 37 °C, read-out: Solubility calculated by pDISOL-X): 3.3 µg/mL
SMILES: CCOC(=O)C1=C(C)NC2=C(C=Nc3ccccc3N2)C1c1ccccc1[N+](=O)[O-] (stereo not shown) [JM-20, 3-ethoxycarbonyl-2-methyl-4-(2-nitrophenyl)-4,11-dihydro-1H-pyrido [2,3-b][1,5] benzodiazepine]
Substrate of the P-glycoprotein transporter (MDR1) [2]: substrate of the P-glycoprotein transporter (MDR1) | Stability in DMSO and absolute ethanol [5]: stable
